System: primary hepatocytes isolated from rats
Assay: Hepatocyte protective effect against doxorubicin treatment (cell viability, WST-1)
Assay type: cell-based
Conditions: primary rat hepatocytes pretreated with compound for 30 min, viability by WST-1 after 24-48 hours
Description: Various endogenous/exogenous attacks on cells trigger the mechanisms of cell death which is broadly classified into two types—i.e., apoptosis or necrosis. Using these cell death mechanisms, in the present experimental example, primary hepatocytes isolated from rats were treated with drugs which were clinically shown to result in serious side-effects of hepatocyte toxicity or various chemicals which derive cell death, and the compounds synthesized in the Examples were estimated for their hepatocyte protective effects, after 24-48 hours. The substances used to cause hepatocyte death include CCl4, ActD, H2O2, doxorubicin, anti-Fas Ab/Actinomycin D, acetaminophen, EtOH, CdCl2, palmitate, stearate, cyclophosphamide, terfenadine, diclofenac, simvastatin, and adefovir. Primary hepatocytes were isolated using the method of Seglen P O (Experimental Cell Research 74 (1972), pp. 450-454). Briefly, hepatocytes were isolated according to the two-step collagenase perfusion method, and dead cells were removed by low speed (500 rpm) centrifugation for 10 min using percoll gradient (Kreamer B L et al., In Vitro Cellular & Developmental Biology 22 (1986), pp. 201-211). During this step, the viability of cells was maintained 90% or above. The cells were suspended in HepatoZYME media (Gibco BRL), and the number of cells was counted. 1.5×10^4 cells in 100 μl were placed into the collagen-coated 96-well plate (BD Biocoat), and adhered on the bottom for 3-4 hours.
In order to assess the hepatocyte protective effect, the above adhered cells were pretreated with the Example compounds for 30 min. At this time, the concentration of the Example compounds was serially diluted by 2-fold or 3-fold over 5 steps starting from 30 μM, 10 μM or 1 μM depending on the experiments, and the final concentration of DMSO was adjusted to 0.2%. 30 min after the treatment by the compounds, the cells were treated by the substances causing hepatocyte death or hepatotoxic drugs at the concentrations indicated in Table 1. After 24-48 hours, the viability of cells was determined to estimate the hepatocyte protective effect. The viability of cells was determined using the WST-1 (MK-400, Takeda) method by the absorbance at 440 nm. Hepatocyte protective effects of the Example compounds were represented by “EC50” which was calculated from measured values. “EC50” herein means the concentration of the compound at which 50% of maximum protective effect is observed in the experiment.

Row | Compound | EC50 [nM] | EC50 (Hepatocyte) [nM]
1 | 1-(4-{5-Chloro-2-[2-(3-trifluoromethyl-5,6,7,8-tetrahydro-[1,2,4]triazolo[4,3-a]pyrazin-1-yl)-ethyl]-1H-indol-7-yl}-piperidin-1-yl)-ethanone [Example 13] | 1800 | –
2 | 4-[5-Methyl-7-(tetrahydropyran-4-ylmethylamino)-1H-indol-2-ylmethyl)-piperazin-2-one [Example 9] | 250 | –
3 | O=C1CN(Cc2cc3cc(Cl)cc(NC4CCCC4)c3[nH]2)CCN1 [Example 1, 4-(5-Chloro-7-cyclopentylamino-1H-indol-2-ylmethyl)-piperazin-2-one] | – | 160
4 | CC(=O)N1CCC(Nc2cc(Cl)cc3cc(CCN4CCNC(=O)C4)[nH]c23)CC1 [Example 3, 4-{2-[7-(1-Acetyl-piperidin-4-ylamino)-5-chloro-1H-indol-2-yl]-ethyl}-piperazin-2-one] | – | 270
5 | Cc1cc(NCC2CCOCC2)c2[nH]c(CN3CCS(=O)(=O)CC3)cc2c1 [Example 7, [2-(1,1-Dioxothiomorpholin-4-ylmethyl)-5-methyl-1H-indol-7-yl]-(tetrahydropyran-4-ylmethyl)-amine] | – | 440
6 | Cc1cc(NC2CCCC2)c2[nH]c(CN3CCS(=O)(=O)CC3)cc2c1 [Example 8, Cyclopentyl-[2-(1,1-dioxothiomorpholin-4-ylmethyl)-5-methyl-1H-indol-7-yl]-amine] | – | 240
7 | CS(=O)(=O)N1CCC(Nc2cc(Cl)cc3cc(CCN4CCn5c(nnc5C(F)(F)F)C4)[nH]c23)CC1 [Example 12] | 600 | –
8 | O=C1CN(CCc2cc3cc(Cl)cc(NCc4ccccc4)c3[nH]2)CCN1 [Example 14, 4-[2-(7-Benzylamino-5-chloro-1H-indol-2-yl)-ethyl]-piperazin-2-one] | – | 300
9 | O=S1(=O)CCN(CCc2cc3cc(Cl)cc(NC4CCOCC4)c3[nH]2)CC1 [Example 18] | 240 | –
10 | O=S1(=O)CCN(CCc2cc3cc(Cl)cc(NC4CCCC4)c3[nH]2)CC1 [Example 19, {5-Chloro-2-[2-(1,1-dioxothiomorpholin-4-yl)-ethyl]-1H-indol-7-yl}-cyclopentyl-amine] | – | 270
11 | O=C1CN(CCc2cc3cc(Cl)cc(NCC4CCOCC4)c3[nH]2)CCN1 [Example 22, 4-(2-{5-Chloro-7-[(tetrahydropyran-4-ylmethyl)-amino]-1H-indol-2-yl}-ethyl)-piperazin-2-one] | – | 900
12 | Clc1cc(NC2CCCC2)c2[nH]c(C3CCNCC3)cc2c1 [Example 48, (5-Chloro-2-piperidin-4-yl-1H-indol-7-yl)-cyclopentyl-amine] | – | 210

— US10927097B2, “Indole compound as inhibitor of necrosis” (LG CHEM, LTD., priority 2013, dated 2021)
